Earlier results on 118 compounds are cited in US6761903B2, “Clear oil-containing pharmaceutical compositions containing a therapeutic agent” (Lipocine, Inc., priority 1999, dated 2004).

Where only a bound is given, the exact number is not on record here.

For the data set the following is noted: as reported by the manufacturer of the commercial product, rough average or inventors' judgment.
“1,2 and 1,3-diolein [1,2 and 1,3-diolein (C18:1)]”: the HLB was less than 10. Regarding `CCCCC/C=C\C/C=C\CCCCCCCC(=O)OCC` [Ethyl linoleate], the HLB is reported as less than 10. For the compound `CCCCCCCC/C=C\CCCCCCCC(=O)OCC` [Ethyl oleate], the HLB is less than 10. Take `CCCCC/C=C\C/C=C\CCCCCCCC(=O)OCC(O)CO` (stereo not shown) [Glycerol monolinoleate]: the HLB is listed as 3-4. For `CCCCCCCCCCCCCCCC(=O)OCC(O)CO` (stereo not shown) [Glycerol monopalmitate], the HLB was 4. As to `CCCCCCCCCCCCCCCCCC(=O)OCC(O)CO` (stereo not shown) [Glycerol monostearate], the HLB is 5-9. As to `CC(=O)OCC(O)CO` (stereo not shown) [Glyceryl acetate], the HLB is less than 10. On to `CCCCCCCC(=O)OCC(O)CO` (stereo not shown) [Glyceryl caprylate], for which the HLB is reported as 5-6. As for `CCCCCCCCCCCC(=O)OCC(O)CO` (stereo not shown) [Glyceryl laurate], the HLB is reported as 4. In the case of `CCCCCCCCCCCC(=O)OCC(O)CO` (stereo not shown) [Glyceryl monolaurate], the HLB is listed as 6.8.

Take `CCCCCCCCCCCCCC(=O)OCC(O)CO` (stereo not shown) [Glyceryl monomyristate (C14), Glyceryl monomyristate]: the HLB is on record as 3-4. Turning to `CCCCCCCC/C=C\CCCCCCCC(=O)OCC(O)CO` (stereo not shown) [Glyceryl monooleate (C18:1), Glyceryl monooleate], the HLB was 3-4. With `CCCCCCCCCCCCCCCCCC(=O)OCC(O)CO` (stereo not shown) [Glyceryl monostearate], the HLB is on record as 4.4. Consider `CCCCCC[C@@H](O)C/C=C\CCCCCCCC(=O)OCC(O)CO` (stereo partly shown) [Glyceryl ricinoleate], for which the HLB is given as 6. As for `CCCCC/C=C\C/C=C\CCCCCCCC(=O)OC(C)C` [Isopropyl linoleate], the HLB is reported as less than 10. `CCCCCCCCCCCCCC(=O)OC(C)C` [Isopropyl myristate]: the HLB is recorded as less than 10. Consider `CCCCCCCCCC(=O)OCC(O)CO` (stereo not shown) [Monocaprin], for which the HLB is on record as less than 10. On to `CCCCCC(=O)OCC(O)CO` (stereo not shown) [Monocaproin (C6), Monocaproin], for which the HLB is given as less than 10. In the case of `CCCCCCCC(=O)OCC(O)CO` (stereo not shown) [Monocaprylin], the HLB is listed as less than 10. Consider `CCCCCCCC/C=C/CCCCCCCC(=O)OCC(O)CO` (stereo not shown) [Monoelaidin (C18:1), Monoelaidin], for which the HLB is less than 10. For `CCCCCCCCCCCC(=O)OCC(O)CO` (stereo not shown) [Monolaurin], the HLB is less than 10. Consider `CCCCCC/C=C\CCCCCCCC(=O)OCC(O)CO` (stereo not shown) [Monopalmitolein (C16:1), Monopalmitolein], for which the HLB was less than 10.

With `CCCCCCCCCCCCCCCCCC(=O)OCCO` [PEG-1 stearate], the HLB is given as 2. On to `CCCCCCCCCCCCOCCOCCOCCOCCO` [PEG-4 lauryl ether], for which the HLB is 9.7. As for `CCCCCCCCCCCCCCCCCC(=O)OCC(CO)(CO)COC(=O)CCCCCCCCCCCCCCCCC` [Pentaerythrityl distearate], the HLB is listed as less than 10.

As for `CCCCCCCC/C=C\CCCCCCCC(=O)OCC(COC(=O)CCCCCCC/C=C\CCCCCCCC)(COC(=O)CCCCCCC/C=C\CCCCCCCC)COC(=O)CCCCCCC/C=C\CCCCCCCC` [Pentaerythrityl tetraoleate], the HLB is on record as less than 10. `CCCCCCCCCCCCCCCCCC(=O)OCC(COC(=O)CCCCCCCCCCCCCCCCC)(COC(=O)CCCCCCCCCCCCCCCCC)COC(=O)CCCCCCCCCCCCCCCCC` [Pentaerythrityl tetrastearate]: the HLB is on record as less than 10.

As to `CCCCCCCCCC(=O)OCC(C)OC(=O)CCCCCCCCC` (stereo not shown) [Propylene glycol dicaprate], the HLB was more than 6. `CCCCCCCCCCCC(=O)OCC(C)OC(=O)CCCCCCCCCCC` (stereo not shown) [Propylene glycol dilaurate]: the HLB is reported as more than 6. Take `CCCCCCCC(=O)OCC(C)OC(=O)CCCCCCC` (stereo not shown) [Propylene glycol dioctanoate]: the HLB is reported as more than 6. In the case of `CCCCCCCCCCCCCCCCCC(=O)OCC(C)OC(=O)CCCCCCCCCCCCCCCCC` (stereo not shown) [Propylene glycol distearate], the HLB is more than 6. Regarding `CCCCCCCCCCCCOS(=O)(=O)[O-].[Na+]` [Sodium lauryl sulfate (dodecyl), Sodium lauryl sulfate], the HLB was 40. For `CCCCCCCC/C=C\CCCCCCCC(=O)[O-].[Na+]` [Sodium oleate], the HLB is 18. As to Caprylic/capric glycerides, the HLB was less than 10. Dicaprin [Dicaprin (C10)]: the HLB was less than 10. Take Dicaproin [Dicaproin (C6)]: the HLB is less than 10.

As to Dielaidin [Dielaidin (C18:1)], the HLB is reported as less than 10. For Dilinolein [Dilinolein (C18:2)], the HLB is less than 10. Dimyristin [Dimyristin (C14)]: the HLB is less than 10. Turning to Dioctanoin [Dioctanoin (C8)], the HLB is on record as less than 10. In the case of Dipalmitin [Dipalmitin (C16)], the HLB is reported as less than 10. With Dipalmitolein [Dipalmitolein (C16:1)], the HLB is less than 10. With Distearin, the HLB is less than 10. Glycerol monooleate/linoleate: the HLB is listed as 3-4. As for “Glyceryl citrate/lactate/oleate/linoleate”, the HLB was less than 10. As to “Glyceryl dilaurate [Glyceryl dilaurate (C12)]”, the HLB is recorded as 3-4. As for Glyceryl dioleate, the HLB is 3-4. In the case of Glyceryl mono-, dioleate, the HLB was less than 10.

With Glyceryl palmitic/stearic, the HLB is reported as less than 10. Take PEG 4-100 monolaurate: the HLB was more than 9. For the compound PEG 4-100 monooleate, the HLB is reported as more than 8.

With PEG 4-100 monostearate, the HLB is listed as more than 6. Regarding PEG 100,200,300 monolaurate, the HLB was more than 10.

For the compound PEG 100,200,300 monooleate, the HLB is recorded as more than 10. As to PEG 400 dioleate, the HLB is more than 10.

As for PEG 400 distearate, the HLB is listed as more than 10. PEG 400-1000 monostearate: the HLB was more than 10. PEG-2 oleate: the HLB is given as 4.5.

On to PEG-2 stearate, for which the HLB was 4.

As for PEG-3 oleyl ether, the HLB is reported as less than 10. Take PEG-4 dilaurate: the HLB is on record as 7.

PEG-4 dioleate: the HLB was 6. Regarding PEG-4 distearate, the HLB is listed as 5. Turning to PEG-4 oleate, the HLB was 8.3.

For the compound PEG-4 stearate, the HLB is 6.5. As to PEG-5 oleate, the HLB is reported as 9.5. For the compound PEG-5 oleyl ether, the HLB is less than 10. Turning to PEG-5 soya sterol, the HLB is reported as less than 10. As to PEG-5 stearate, the HLB is given as 9.5.

Regarding PEG-6 dilaurate, the HLB is reported as 9.8. For PEG-6 dioleate, the HLB is on record as 7.2.

In the case of PEG-6 distearate, the HLB is recorded as 6.5. On to PEG-6 sorbitan monostearate, for which the HLB was 11. Consider PEG-6 stearate, for which the HLB is 9.7. Turning to PEG-7 oleate, the HLB is on record as 10.4.

Consider PEG-8 dioleate, for which the HLB is given as 8.8.

PEG-9 oleate: the HLB is given as more than 10.

Regarding PEG-9 stearate, the HLB was more than 10. Regarding PEG-10 dipalmitate, the HLB is listed as more than 10.

For the compound PEG-10 soya sterol, the HLB is listed as less than 10. Take PEG-12 dilaurate: the HLB was 11.7.

Take PEG-12 dioleate: the HLB is reported as 10. For PEG-12 distearate, the HLB is 10.7. Turning to PEG-12 oleate, the HLB is 14. In the case of PEG-12 ricinoleate, the HLB is more than 10.

For the compound PEG-12 stearate, the HLB is given as 14. For PEG-15 stearate, the HLB is listed as 14. As for PEG-20 glyceryl oleate, the HLB was more than 10. PEG-20 soya sterol: the HLB was less than 10. PEG-24 cholesterol ether: the HLB is listed as more than 10. As to PEG-25 phyto sterol, the HLB is on record as more than 10.

Consider PEG-30 cholestanol, for which the HLB was more than 10. In the case of PEG-30 glyceryl oleate, the HLB is on record as more than 10.

For the compound PEG-30 soya sterol, the HLB is on record as more than 10. In the case of PEG-30 stearate, the HLB is on record as more than 10. As for PEG-40 oleate, the HLB is recorded as 17.4. Turning to PEG-40 stearate, the HLB is more than 10.

As to PEG-50 stearate, the HLB is recorded as more than 10.

On to PEG-100 oleate, for which the HLB was 18.8. For the compound PEG-100 stearate, the HLB is reported as 19. Turning to PEG-200 oleate, the HLB was more than 10. As for PEG-400 dioleate, the HLB is recorded as more than 10.

Take PEG-400 distearate: the HLB was more than 10. Take PEG-400 oleate: the HLB is more than 10.

For PEG-600 oleate, the HLB is reported as more than 10. For “Pentaerythrityl tetracaprylate/tetracaprate”, the HLB was less than 10.

As for Pentaerythrityl tetraisostearate, the HLB is reported as less than 10. On to Phytosterol, for which the HLB is on record as less than 10. With Polyglyceryl-2 dioleate, the HLB was 7. For the compound Polyglyceryl-2 isostearate, the HLB was 5-7. In the case of Polyglyceryl-2 oleate, the HLB is reported as 5-7.

Consider Polyglyceryl-2 stearate, for which the HLB is 5-7. Polyglyceryl-3 dioleate: the HLB is less than 10. Take Polyglyceryl-3 distearate: the HLB is recorded as less than 10. Consider Polyglyceryl-3 oleate, for which the HLB was 6.5. Take Polyglyceryl-4 oleate: the HLB is reported as 5-7. With Polyglyceryl-4 pentaoleate, the HLB is given as less than 10. On to Polyglyceryl-4 stearate, for which the HLB is on record as 5-6.
